# Source: BindingDB's records for patent US20260070887 (Shenzhen Zhongge Biological Technology Co., 2026)
# Target: T1, Kinesin-like protein KIF18A (Homo sapiens, UniProt Q8NI77)
# T1 sequence (Q8NI77 whole entry): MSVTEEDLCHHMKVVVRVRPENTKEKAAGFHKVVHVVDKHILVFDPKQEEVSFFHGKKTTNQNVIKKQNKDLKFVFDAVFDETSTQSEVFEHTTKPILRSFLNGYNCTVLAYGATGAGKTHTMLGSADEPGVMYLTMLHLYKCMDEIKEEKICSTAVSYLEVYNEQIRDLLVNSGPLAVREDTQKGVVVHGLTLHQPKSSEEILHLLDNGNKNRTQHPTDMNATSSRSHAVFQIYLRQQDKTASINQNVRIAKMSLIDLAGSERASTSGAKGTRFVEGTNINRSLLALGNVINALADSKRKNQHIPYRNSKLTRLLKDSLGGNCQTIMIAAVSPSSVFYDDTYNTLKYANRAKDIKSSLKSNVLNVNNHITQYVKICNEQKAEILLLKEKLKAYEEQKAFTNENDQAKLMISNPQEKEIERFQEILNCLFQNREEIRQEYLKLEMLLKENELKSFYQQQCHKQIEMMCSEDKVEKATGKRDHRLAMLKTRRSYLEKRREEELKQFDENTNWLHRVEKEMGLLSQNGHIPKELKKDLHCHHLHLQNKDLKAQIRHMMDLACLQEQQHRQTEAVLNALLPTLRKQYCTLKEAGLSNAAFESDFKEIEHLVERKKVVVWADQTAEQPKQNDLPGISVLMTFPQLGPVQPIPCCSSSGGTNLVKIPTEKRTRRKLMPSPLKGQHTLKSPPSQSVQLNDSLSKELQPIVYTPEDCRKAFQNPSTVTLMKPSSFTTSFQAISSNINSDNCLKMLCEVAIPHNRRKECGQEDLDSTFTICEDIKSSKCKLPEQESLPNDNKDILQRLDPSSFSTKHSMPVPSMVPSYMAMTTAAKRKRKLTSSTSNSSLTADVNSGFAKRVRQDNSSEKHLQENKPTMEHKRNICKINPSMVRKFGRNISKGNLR
# Assay: Assay of the Inhibitory Effects on KIF18A Activity In Vitro (ADP-Glo Assay)
# Description: Experimental Method 1. Preparation of 30 mL of reaction buffer: (1) 450 μL 1M Tris-HCl (pH=7.5)+300 μL 1M MgCl2+30 μL 10% Pluronic F-68 (ThermoFisher, 24040032-100 ml); (2) adjusting pH to 7.5, and adding water to adjust the volume to 30 mL. 2. Preparation of a 5 mg/mL pig microtubule (Microtubules; MT) (Cytoskeleton Inc, MT002) stock solution: (1) 10 mL PM buffer=150 μL 1 M PIPES (pH 7.0)+20 μL 0.5 mM MgCl2+100 μL 2 mM Taxol (Cytoskeleton Inc, TXD01)+9730 μL water. (2) MT (500 ag/tube): Adding 100 μL PM buffer to prepare a 5 mg/mL stock solution. Keeping the MT (Cytoskeleton Inc, MT002) at room temperature for 10-15 minutes, gently mixing and storing same at −80° C. 3. Preparation of 2 mL of kinase buffer: 2 mL reaction buffer+1 μL 2 mM Taxol (Cytoskeleton Inc, TXD01)+12 μL 5 mg/mL MT (Cytoskeleton Inc, MT002). 4. Preparation of 2×KIF18A (30 nM) (ChemPartner, CPB-P22-31645) working solution: 2.4 μL 10 μM KIF18A (ChemPartner, CPB-P22-31645)+800 μL 1× kinase buffer. 5. Preparation of 2×ATP (150 μM) (Promega, G9101) working solution: 12 μL 10 mM ATP+800 μL 1× kinase buffer. 6. 25 nL of compound was transferred to a 384-well plate using Echo650. 7. 2.5 μL of 2×KIF18A from Step 4 (final concentration of 30 nM) was added to the 384-well plate and the plate was incubated at 25° C. for 15 minutes. 8. 2.5 μL of 2×ATP from Step 5 (final concentration of 150 μM) was added to the 384-well plate and the plate was incubated at 25° C. for 15 minutes. 9. 5 μL ADP-Glo™ Reagent (Promega, G9101) was added to the 384-well plate and the plate was incubated at 25° C. for 40 minutes. 10. 10 μL of kinase detection reagent (Promega, G9101) was added to the 384-well plate and the plate was incubated at 25° C. for 40 minutes. 11. Luminescence values were measured using the EnVision Xcite Multilabel Reader (PerkinElmer, 2105-0020).
row,Structure (SMILES),IC50
1,"Nc1ccc(S(=O)(=O)Nc2ccc(C(=O)Nc3ccnc4c3CCN4CC3CC3)c(N3CCC4(CC3)CC4)c2)c(CCO)c1 [US20260070887, Example 32]",in the range around 275 nM
2,"Nc1ccc(S(=O)(=O)Nc2ccc(C(=O)Nc3ccnc4c3ccn4CC3CC3)c(N3CCC4(CC3)CC4)c2)c(CCO)c1 [US20260070887, Example 33]",< 50 nM
3,"COc1ccc(C(=O)Nc2cccc3c2ccn3CC2CC2)c(N2CCC3(CC2)CC3)c1 [US20260070887, Example 127]",< 50 nM
4,"CC1(C)Cn2c(cc3c(NC(=O)c4cnc(NS(=O)(=O)CCO)cc4N4CCC5(CC4)CC5)cccc32)CO1 [US20260070887, Example 454]",< 50 nM
5,"CC1(C)Cn2c(cc3c(NC(=O)c4ccc(NS(=O)(=O)CCO)cc4N4CCC(=C(F)F)CC4)ccc(Cl)c32)CO1 [US20260070887, Example 522]",< 50 nM

# More lines, now with the values ahead:
row,IC50,Structure (SMILES)
1,< 50 nM,"COc1ccc(NC(=O)c2ccc(NS(=O)(=O)CCO)cc2N2CCC3(CC2)CC3)c2cc3n(c12)CCOC3 [US20260070887, Example 404]"
2,< 50 nM,"COC1c2cc3c(NC(=O)c4ccc(NS(=O)(=O)CCO)cc4N4CCC(=C(F)F)CC4)ccc(C#N)c3n2CCC1(F)F (centres undefined) [US20260070887, Example 427]"
3,< 50 nM,"COc1ccc(NC(=O)c2ccc(NS(=O)(=O)CCO)cc2N2CCC3(CC2)CC3)c2cc3n(c12)CCC(F)(F)C3 [US20260070887, Example 478]"
4,in the range around 275 nM,"CC1(C)Cn2c(cc3c(NC(=O)c4ccc(NS(=O)(=O)c5ccc(N)cc5CCO)cc4N4CCC5(CC4)CC5)ccc(F)c32)CO1 [US20260070887, Example 519]"
